In ChEMBL document CHEMBL1146803, “Structure activity studies of ring E analogues of methyllycaconitine. Part 2: Synthesis of antagonists to the alpha3beta4* nicotinic acetylcholine receptors through modifications to the ester” (Bioorg Med Chem Lett, 2004):

Columns and labels:
[1] = target: T1, Neuronal acetylcholine receptor; alpha3/beta4 (Homo sapiens, UniProt P30926+P32297); assay: Effect on alpha3-beta4 neuronal nicotinic acetylcholine receptor-stimulated adrenal catecholamine secretion; assay type: functional
[2] = target: T1, Neuronal acetylcholine receptor; alpha3/beta4; assay: Inhibitory activity against nicotinic acetylcholine receptor alpha3-beta4; assay type: protein-complex assay
[3] = target: Neuronal acetylcholine receptor subunit alpha-7 (Homo sapiens, UniProt P36544); assay: Affinity for nicotinic acetylcholine receptor alpha7
[4] = target: Neuronal acetylcholine receptor subunit alpha-3 (Homo sapiens, UniProt P32297); assay: Inhibitory activity on nicotinic acetylcholine receptor alpha3
Sequence of Neuronal acetylcholine receptor subunit alpha-3 (P32297 whole entry): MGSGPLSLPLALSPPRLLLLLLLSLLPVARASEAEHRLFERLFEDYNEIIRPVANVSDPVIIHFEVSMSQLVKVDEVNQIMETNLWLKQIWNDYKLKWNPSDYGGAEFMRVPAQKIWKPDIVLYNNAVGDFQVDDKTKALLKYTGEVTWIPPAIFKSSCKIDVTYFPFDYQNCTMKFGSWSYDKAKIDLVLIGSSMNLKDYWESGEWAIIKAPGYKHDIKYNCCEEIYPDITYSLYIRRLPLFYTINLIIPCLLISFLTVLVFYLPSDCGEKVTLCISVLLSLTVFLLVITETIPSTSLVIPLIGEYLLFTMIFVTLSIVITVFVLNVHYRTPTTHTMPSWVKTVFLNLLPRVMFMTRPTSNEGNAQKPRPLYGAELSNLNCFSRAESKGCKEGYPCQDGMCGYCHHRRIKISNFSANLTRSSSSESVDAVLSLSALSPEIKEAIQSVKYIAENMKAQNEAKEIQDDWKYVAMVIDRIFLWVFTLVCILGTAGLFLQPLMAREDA

T1 sequence (P30926 whole entry): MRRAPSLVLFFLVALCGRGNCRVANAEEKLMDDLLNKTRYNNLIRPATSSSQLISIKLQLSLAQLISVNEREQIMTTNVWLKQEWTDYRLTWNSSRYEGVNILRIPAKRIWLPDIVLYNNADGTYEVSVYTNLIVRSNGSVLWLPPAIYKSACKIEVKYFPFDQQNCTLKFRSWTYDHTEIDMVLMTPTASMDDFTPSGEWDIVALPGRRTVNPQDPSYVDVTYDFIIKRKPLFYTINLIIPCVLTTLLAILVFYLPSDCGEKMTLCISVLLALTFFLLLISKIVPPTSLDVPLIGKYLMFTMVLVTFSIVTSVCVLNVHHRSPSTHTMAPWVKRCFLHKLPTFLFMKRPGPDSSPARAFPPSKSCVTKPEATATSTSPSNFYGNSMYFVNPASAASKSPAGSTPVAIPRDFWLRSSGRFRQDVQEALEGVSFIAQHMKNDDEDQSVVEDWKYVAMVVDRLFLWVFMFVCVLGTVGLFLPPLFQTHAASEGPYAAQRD
T1 sequence (P32297 whole entry): as the sequence (P32297 whole entry) above
Sequence of Neuronal acetylcholine receptor subunit alpha-7 (P36544 whole entry): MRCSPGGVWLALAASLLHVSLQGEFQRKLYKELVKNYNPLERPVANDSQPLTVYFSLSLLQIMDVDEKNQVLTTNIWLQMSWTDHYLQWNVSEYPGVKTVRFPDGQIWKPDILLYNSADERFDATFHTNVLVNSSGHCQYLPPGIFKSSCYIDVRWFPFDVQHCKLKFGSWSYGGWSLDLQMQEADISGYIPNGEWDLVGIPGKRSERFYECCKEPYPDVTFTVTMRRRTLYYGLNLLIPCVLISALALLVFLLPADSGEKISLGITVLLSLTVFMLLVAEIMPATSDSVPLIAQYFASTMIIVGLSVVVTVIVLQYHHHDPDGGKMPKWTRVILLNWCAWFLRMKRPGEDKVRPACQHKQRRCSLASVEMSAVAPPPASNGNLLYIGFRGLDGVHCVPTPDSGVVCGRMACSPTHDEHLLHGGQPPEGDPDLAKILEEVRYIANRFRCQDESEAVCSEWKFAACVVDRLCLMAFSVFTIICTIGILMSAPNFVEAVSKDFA

O=C(OCC1CCCN(CCCc2ccccc2)C1)c1ccccc1F (centres undefined)
IC50 [1]: 5.2 µM

CCC1CC(=O)N(c2ccccc2C(=O)OCC2CCCN(CCCc3ccccc3)C2)C1=O (centres undefined)
IC50 [1]: 4.5 µM

O=C(OCC1CCCN(CCCc2ccccc2)C1)c1ccc(-c2ccccc2)cc1 (centres undefined)
IC50 [1]: 3 µM

CCCCC1CC(=O)N(c2ccccc2C(=O)OCC2CCCN(CCCc3ccccc3)C2)C1=O (centres undefined)
IC50 [1]: 1.5 µM

CC1(C)CC(=O)N(c2ccccc2C(=O)OCC2CCCN(CCCc3ccccc3)C2)C1=O (centres undefined)
IC50 [1]: 7.5 µM

CC1C(=O)N(c2ccccc2C(=O)OCC2CCCN(CCCc3ccccc3)C2)C(=O)C1C (centres undefined)
IC50 [1]: 6 µM

O=C(OCC1CCCN(CCCc2ccccc2)C1)c1ccccc1N1C(=O)c2ccccc2C1=O (centres undefined)
IC50 [1]: 1.3 µM

O=C(OCC1CCCN(CCCc2ccccc2)C1)c1ccccc1-c1ccccc1 (centres undefined)
IC50 [1]: 1.7 µM

O=C(OCC1CCCN(CCCc2ccccc2)C1)c1ccccc1C(F)(F)F (centres undefined)
IC50 [1]: 3.2 µM

CCCCCCCCC1CC(=O)N(c2ccccc2C(=O)OCC2CCCN(CCCc3ccccc3)C2)C1=O (centres undefined)
IC50 [1]: 1.3 µM

COc1cc2c3cc1Oc1cc(ccc1O)C[C@@H]1c4c(cc(OC)c(O)c4Oc4ccc(cc4)C[C@@H]3N(C)CC2)CC[N+]1(C)C
IC50 [2]: 2 µM

CC1CC(=O)N(c2ccccc2C(=O)OCC2CCCN(CCc3ccccc3)C2)C1=O (centres undefined)
IC50 [3]: 177 µM
IC50 [1]: 11.4 µM

O=C(OCC1CCCN(CCCc2ccccc2)C1)c1ccccc1N1C(=O)CC(C2CCCC2)C1=O (centres undefined)
IC50 [1]: 1.2 µM

C=CCC1CC(=O)N(c2ccccc2C(=O)OCC2CCCN(CCCc3ccccc3)C2)C1=O (centres undefined)
IC50 [1]: 1.7 µM

CC(C)C1CC(=O)N(c2ccccc2C(=O)OCC2CCCN(CCCc3ccccc3)C2)C1=O (centres undefined)
IC50 [1]: 2.5 µM

O=C(OCC1CCCN(CCCc2ccccc2)C1)c1ccccc1N1C(=O)CC(Cc2ccccc2)C1=O (centres undefined)
IC50 [1]: 1.3 µM

CC(=O)Nc1ccccc1C(=O)OCC1CCCN(CCCc2ccccc2)C1 (centres undefined)
IC50 [1]: 8.4 µM

COc1ccccc1C(=O)OCC1CCCN(CCCc2ccccc2)C1 (centres undefined)
IC50 [1]: 3.2 µM

CC1CC(=O)N(c2ccccc2C(=O)OCC2CCCN(C(C)C)C2)C1=O (centres undefined)
IC50 [4]: ~20 µM

CC(C)N1CCCC(COC(=O)c2ccccc2N2C(=O)CCC2=O)C1 (centres undefined)
IC50 [4]: ~20 µM

C[N+](C)(C)CCCCCCCCCC[N+](C)(C)C [DECAMETHONIUM]
IC50 [2]: ~1.7 µM

C[N+](C)(C)CCCCCC[N+](C)(C)C [HEXAMETHONIUM HYDROXIDE]
IC50 [2]: ~1.7 µM

CCN1C[C@]2(COC(=O)c3ccccc3N3C(=O)C[C@H](C)C3=O)CC[C@H](OC)[C@@]34[C@@H]5C[C@H]6[C@H](OC)[C@@H]5[C@](O)(C[C@@H]6OC)[C@](O)([C@@H](OC)[C@H]23)[C@@H]14 [METHYLLYCACONITINE]
IC50 [1]: 2.6 µM
